Source: PMC8347364 (International Journal of Molecular Sciences, 2021)

Experiments:
ureG = biological target: T1, ureG (uncultured rumen bacterium, UniProt A0A6M3RDS9); test: malachite green GTPase assay, single concentration […], almost […] inhibition; type: biochemical
T1 construct: Strep-tagged UreG (GenBank ID: MN660252)

(UniProt A0A6M3RDS9) = biological target: T2, (UniProt A0A6M3RDS9); test: malachite green GTPase assay (IC50); Lineweaver-Burk Ki […]; CD change; ITC of nickel binding in its presence; type: biochemical, uncultured rumen bacterium
T2 construct: gene ureG; Strep-tagged UreG (GenBank ID: MN660252)
T2 sequence (A0A6M3RDS9 1-203): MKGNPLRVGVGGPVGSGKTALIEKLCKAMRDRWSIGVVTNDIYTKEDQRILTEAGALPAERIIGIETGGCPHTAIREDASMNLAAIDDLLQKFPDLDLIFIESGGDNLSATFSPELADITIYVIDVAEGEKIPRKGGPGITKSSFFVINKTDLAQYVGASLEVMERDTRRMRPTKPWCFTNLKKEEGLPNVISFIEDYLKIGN

T1 sequence (A0A6M3RDS9 1-203): as above

Row | Structure (SMILES) | inhibition at 100 µM (ureG) [%] | IC50 ((UniProt A0A6M3RDS9)) [µM]
1 | C=C(C)[C@@H]1CC[C@]2(C(=O)O)CC[C@]3(C)[C@H](CC[C@@H]4[C@@]5(C)CC[C@H](O)[C@@](C)(CO)[C@@H]5CC[C@]43C)[C@@H]12 [anemosapogenin] | ~100 | 
2 | COc1ccc2c(c[n+](C)c3c4cc5c(cc4ccc23)OCO5)c1OC [chelerythrine chloride] |  | 18.1
3 | O=C(/C=C/c1ccc(O)c(O)c1)O[C@H]1[C@H](O)C[C@](O)(C(=O)O)C[C@H]1OC(=O)/C=C/c1ccc(O)c(O)c1 [isochlorogenic acid B] | ~100 | 
